Molecules are shown by their SMILES.

Results on one compound are retold here after paper PMC6472066, “Characterisation of three novel α-L-arabinofuranosidases from a compost metagenome” (BMC Biotechnology, 2019).

What all share (assay): pNP release at […] nm, Michaelis-Menten fit
The test system of assay [1] is T1, AFase-E3.
T1 construct: full-length ORF, 510 residues, 58 kDa; C-terminal His tag (pET21a, NdeI-HindIII); E. coli BL21(DE3); homo-hexamer
The format is biochemical, metagenome: high temperature compost. Conditions: at the enzyme's pH and temperature optima (pH 4.0, 60 °C), 1 min; read-out: KM in mM (Std. error).

In assay [2] the test system is T2, AFase-H4.
T2 construct: full-length ORF, 489 residues, 55 kDa, no signal peptide; C-terminal His tag (pET21a, NdeI-XhoI); E. coli BL21(DE3); homo-hexamer
The format is biochemical, uncultured bacterium (compost metagenome). Conditions: at the enzyme's pH and temperature optima (pH 5.0, 60 °C), 1 min; read-out: KM in mM (Std. error).

Assay [3] concerns T3, AFase-D3.
T3 construct: full-length ORF, 494 residues, 56 kDa; C-terminal His tag (pET21a, NdeI-XhoI); E. coli BL21(DE3); homo-hexamer; primer-encoded N-terminus MNNVVINV
The class given is biochemical, metagenome: high temperature compost. Conditions: at the enzyme's pH and temperature optima (pH 4.5, 25 °C), 1 min; abstract gives KM range up to 0.43 mM; read-out: KM in mM (Std. error).

Consider `O=[N+]([O-])c1ccc(O[C@@H]2O[C@@H](CO)[C@H](O)[C@H]2O)cc1` [pNP-α-L-arabinofuranoside], for which the figures for the Km in assay [1], in assay [2] and in assay [3] were 0.33 mM, 0.31 mM and 0.38 mM, respectively.

In general, Km refers to the substrate concentration at which the rate is half of its maximum.
